Assay results as given in patent US9102638B2, “Amidobenzothiazoles and process for the preparation thereof” (COUNCIL OF SCIENTIFIC & INDUSTRIAL RESEARCH, priority 2011, dated 2015).

What was measured:
Assay type in all cases: cell-based
EKVX = assay: In vitro cytotoxicity, NCI screen: EKVX (Non-small cell lung); details: Homo sapiens, Non-small cell lung panel, NCI protocol, read-out: GI50 values (μM conc.)
Procedure: (§1) The in vitro anticancer activity studies for these amidobenzothiazoles were carried out at the National Cancer Institute, Maryland, USA.
(§2) The amidobenzothiazoles have been tested against sixty human tumor cell lines derived from nine cancer types (leukemia cancer cell line, non-small cell lung cancer cell line, colon cancer cell line, CNS cancer cell line, melanoma cancer cell line, ovarian cancer cell line, renal cancer cell line, prostate cancer cell line and breast cancer cell lines). For these compounds results are expressed in GI50 values of that particular cancer cell at micro molar (μM) concentration as per NCI protocol.

UO-31 = assay: In vitro cytotoxicity, NCI screen: UO-31 (Renal); details: Homo sapiens; UO-31, Renal panel, NCI protocol; read-out: GI50 values (μM conc.)
Procedure: as §1, §2

HCC-2998 = assay: In vitro cytotoxicity, NCI screen: HCC-2998 (Colon); details: Homo sapiens; HCC-2998, Colon panel, NCI protocol; read-out: GI50 values (μM conc.)
Procedure: as §1, §2

SK-MEL-2 = assay: In vitro cytotoxicity, NCI screen: SK-MEL-2 (Melanoma); details: Homo sapiens; SK-MEL-2, Melanoma panel, NCI protocol; read-out: GI50 values (μM conc.)
Procedure: as §1, §2

U251 = assay: In vitro cytotoxicity, NCI screen: U251 (CNS); details: Homo sapiens, U-251; U251, CNS panel, NCI protocol; read-out: GI50 values (μM conc.)
Procedure: as §1, §2

NCI/ADR-RES = assay: In vitro cytotoxicity, NCI screen: NCI/ADR-RES (Ovarian); details: Homo sapiens, Ovarian panel, NCI protocol, read-out: GI50 values (μM conc.)
Procedure: as §1, §2

CAKI-1 = assay: In vitro cytotoxicity, NCI screen: CAKI-1 (Renal); details: Homo sapiens; CAKI-1, Renal panel, NCI protocol; read-out: GI50 values (μM conc.)
Procedure: as §1, §2

HCT-116 = assay: In vitro cytotoxicity, NCI screen: HCT-116 (Colon); details: Homo sapiens, read-out: GI50 values (μM conc.)
Procedure: as §1, §2

NCI-H460 = assay: In vitro cytotoxicity, NCI screen: NCI-H460 (Non-small cell lung); details: Homo sapiens; NCI-H460, Non-small cell lung panel, NCI protocol; read-out: GI50 values (μM conc.)
Procedure: as §1, §2

OVCAR-3 = assay: In vitro cytotoxicity, NCI screen: OVCAR-3 (Ovarian); details: Homo sapiens; OVCAR-3, Ovarian panel, NCI protocol; read-out: GI50 values (μM conc.)
Procedure: as §1, §2

NCI-H226 = assay: In vitro cytotoxicity, NCI screen: NCI-H226 (Non-small cell lung); details: Homo sapiens; NCI-H226, Non-small cell lung panel, NCI protocol; read-out: GI50 values (μM conc.)
Procedure: as §1, §2

NCI-H522 = assay: In vitro cytotoxicity, NCI screen: NCI-H522 (Non-small cell lung); details: Homo sapiens; NCI-H522, Non-small cell lung panel, NCI protocol; read-out: GI50 values (μM conc.)
Procedure: as §1, §2

OVCAR-8 = assay: In vitro cytotoxicity, NCI screen: OVCAR-8 (Ovarian); details: Homo sapiens; OVCAR-8, Ovarian panel, NCI protocol; read-out: GI50 values (μM conc.)
Procedure: as §1, §2

BT-549 = assay: In vitro cytotoxicity, NCI screen: BT-549 (Breast); details: Homo sapiens, read-out: GI50 values (μM conc.)
Procedure: as §1, §2

MDA-MB-468 = assay: In vitro cytotoxicity, NCI screen: MDA-MB-468 (Breast); details: Homo sapiens, read-out: GI50 values (μM conc.)
Procedure: as §1, §2

LOX IMVI = assay: In vitro cytotoxicity, NCI screen: LOX IMVI (Melanoma); details: Homo sapiens, Melanoma panel, NCI protocol, read-out: GI50 values (μM conc.)
Procedure: as §1, §2

CNS cancer cell lines = assay: In vitro activity against CNS cancer cell lines (panel range); details: Homo sapiens, read-out: GI50 values, range over the listed compounds and the panel
Procedure: as §1, §2

DU-145 = assay: In vitro cytotoxicity, NCI screen: DU-145 (Prostate); details: Homo sapiens, read-out: GI50 values (μM conc.)
Procedure: as §1, §2

SK-OV-3 = assay: In vitro cytotoxicity, NCI screen: SK-OV-3 (Ovarian); details: Homo sapiens; SK-OV-3, Ovarian panel, NCI protocol; read-out: GI50 values (μM conc.)
Procedure: as §1, §2

T-47D = assay: In vitro cytotoxicity, NCI screen: T-47D (Breast); details: Homo sapiens, T47D, Breast panel, NCI protocol, read-out: GI50 values (μM conc.)
Procedure: as §1, §2

OVCAR-4 = assay: In vitro cytotoxicity, NCI screen: OVCAR-4 (Ovarian); details: Homo sapiens; OVCAR-4, Ovarian panel, NCI protocol; read-out: GI50 values (μM conc.)
Procedure: as §1, §2

PC-3 = assay: In vitro cytotoxicity, NCI screen: PC-3 (Prostate); details: Homo sapiens; PC-3, Prostate panel, NCI protocol; read-out: GI50 values (μM conc.)
Procedure: as §1, §2

KM12 = assay: In vitro cytotoxicity, NCI screen: KM12 (Colon); details: Homo sapiens; KM12, Colon panel, NCI protocol; read-out: GI50 values (μM conc.)
Procedure: as §1, §2

SK-MEL-5 = assay: In vitro cytotoxicity, NCI screen: SK-MEL-5 (Melanoma); details: Homo sapiens; SK-MEL-5, Melanoma panel, NCI protocol; read-out: GI50 values (μM conc.)
Procedure: as §1, §2

HS 578T = assay: In vitro cytotoxicity, NCI screen: HS 578T (Breast); details: Homo sapiens, read-out: GI50 values (μM conc.)
Procedure: as §1, §2

HOP-62 = assay: In vitro cytotoxicity, NCI screen: HOP-62 (Non-small cell lung); details: Homo sapiens; HOP-62, Non-small cell lung panel, NCI protocol; read-out: GI50 values (μM conc.)
Procedure: as §1, §2

SK-MEL-28 = assay: In vitro cytotoxicity, NCI screen: SK-MEL-28 (Melanoma); details: Homo sapiens; SK-MEL-28, Melanoma panel, NCI protocol; read-out: GI50 values (μM conc.)
Procedure: as §1, §2

SNB-19 = assay: In vitro cytotoxicity, NCI screen: SNB-19 (CNS); details: Homo sapiens; SNB-19, CNS panel, NCI protocol; read-out: GI50 values (μM conc.)
Procedure: as §1, §2

TK-10 = assay: In vitro cytotoxicity, NCI screen: TK-10 (Renal); details: Homo sapiens; TK-10, Renal panel, NCI protocol; read-out: GI50 values (μM conc.)
Procedure: as §1, §2

Structure (SMILES) | GI50 (EKVX) [µM] | GI50 (UO-31) [µM] | GI50 (HCC-2998) [µM] | GI50 (U251) [µM] | GI50 (NCI/ADR-RES) [µM] | GI50 (CAKI-1) [µM] | GI50 (HCT-116) [µM] | GI50 (OVCAR-3) [µM] | GI50 (NCI-H226) [µM] | GI50 (NCI-H522) [µM] | GI50 (OVCAR-8) [µM] | GI50 (BT-549) [µM] | GI50 (MDA-MB-468) [µM] | GI50 (LOX IMVI) [µM] | GI50 (CNS cancer cell lines) [µM] | GI50 (DU-145) [µM] | GI50 (SK-OV-3) [µM] | GI50 (T-47D) [µM] | GI50 (OVCAR-4) [µM] | GI50 (PC-3) [µM] | further results
COc1ccc(/C=C\c2cc(OC)c(OC)c(OC)c2)cc1OCC(=O)Nc1nc2ccccc2s1 [Compound 8a, N1-(1,3-benzothiazol-2-yl)-2-{2-methoxy-5-[(Z)-2-(3,4,5-trimethoxyphenyl)-1-ethenyl]phenoxy}acetamide] | 0.038 | 0.58 | 0.37 | 0.048 | 0.033 | 0.41 | 0.046 | 0.043 | 0.27 | 0.079 | 0.25 | 0.41 | 0.1 | 0.067 | 0.045 to 18.8 | 0.1 | 0.34 | 1 | 0.37 | 0.18 | GI50 (SK-MEL-2): 0.18 µM; GI50 (NCI-H460): 0.052 µM; GI50 (KM12): 0.058 µM; GI50 (SK-MEL-5): 0.036 µM
COc1ccc(/C=C\c2cc(OC)c(OC)c(OC)c2)cc1OCC(=O)Nc1nc2ccc(F)cc2s1 [Compound 8e, N1-(6-fluoro-1,3-benzothiazol-2-yl)-2-{2-methoxy-5-[(Z)-2-(3,4,5-trimethoxyphenyl)-1-ethenyl]phenoxy}acetamide] | 5.72 | 2.56 | > 100 | 4.33 | 2.55 | 2.78 | 4.48 | 9.99 | 5.6 | 2.92 | 7.15 | 16.7 | 3.68 | 3.23 | 0.045 to 18.8 | 8.97 | 8 | 3.39 | 7.3 | 6.74 | GI50 (HS 578T): > 100 µM; GI50 (SK-MEL-2): 8.46 µM; GI50 (HOP-62): 5.7 µM; GI50 (SK-MEL-28): > 100 µM; GI50 (NCI-H460): 4.36 µM; GI50 (SNB-19): > 100 µM; GI50 (TK-10): 9.89 µM; GI50 (KM12): 4.78 µM; GI50 (SK-MEL-5): 1.76 µM
COc1ccc2nc(NC(=O)COc3cc(/C=C\c4cc(OC)c(OC)c(OC)c4)ccc3OC)sc2c1 [Compound 8g, N1-(6-methoxy-1,3-benzothiazol-2-yl)-2-{2-methoxy-5-[(Z)-2-(3,4,5-trimethoxyphenyl)-1-ethenyl]phenoxy}acetamide] | 5.11 | 4.31 | 7.34 | 4 | 2.3 | 3.2 | 3.7 | 2.17 | 4.51 | 3.09 | 5.28 | 21.2 | 2.29 | 4.17 | 0.045 to 18.8 | 2.04 | 4.69 | 4.03 | 5.31 | 4.45 | GI50 (HS 578T): 4.15 µM; GI50 (SK-MEL-2): 4.07 µM; GI50 (HOP-62): 23 µM; GI50 (SK-MEL-28): 4.41 µM; GI50 (NCI-H460): 3.73 µM; GI50 (SNB-19): 6.3 µM; GI50 (TK-10): 7.54 µM; GI50 (KM12): 3.12 µM; GI50 (SK-MEL-5): 2.68 µM
COc1ccc(/C=C\c2cc(OC)c(OC)c(OC)c2)cc1OCC(=O)Nc1nc2ccc(C(F)(F)F)cc2s1 [Compound 8i, N1-(6-(trifluoromethyl)-1,3-benzothiazol-2-yl)-2-{2-methoxy-5-[(Z)-2-(3,4,5-trimethoxyphenyl)-1-ethenyl]phenoxy}acetamide] | 6.25 | 3.59 | 4.23 | 3.67 | 2.12 | 3.1 | 3.29 | 2.11 | 3.17 | 2.89 | 3.86 | 5.23 | 2.16 | 4.01 | 0.045 to 18.8 | 2.51 | 3.29 | 4.79 | 4.66 | 4.32 | GI50 (HS 578T): 4.18 µM; GI50 (SK-MEL-2): 3.98 µM; GI50 (HOP-62): 5.22 µM; GI50 (SK-MEL-28): 3 µM; GI50 (NCI-H460): 3.55 µM; GI50 (SNB-19): 5.03 µM; GI50 (TK-10): 7.03 µM; GI50 (KM12): 3.14 µM; GI50 (SK-MEL-5): 2.84 µM
COc1ccc(/C=C\c2cc(OC)c(OC)c(OC)c2)cc1OCC(=O)Nc1nc2ccc(OC(F)(F)F)cc2s1 [Compound 8j, N1-(6-(trifluoromethoxy)-1,3-benzothiazol-2-yl)-2-{2-methoxy-5-[(Z)-2-(3,4,5-trimethoxyphenyl)-1-ethenyl]phenoxy}acetamide] | 7.89 | 4.37 | 17.1 | 3.37 | 2.7 | 4.6 | 3.92 | 3.37 | 4.3 | 3.16 | 5 | 10.5 | 2.3 | 4.77 | 0.045 to 18.8 | 4.11 | 8.42 | 3.95 | 5.34 | 5.12 | GI50 (HS 578T): 4.33 µM; GI50 (SK-MEL-2): 3.29 µM; GI50 (HOP-62): 7.09 µM; GI50 (SK-MEL-28): 4.57 µM; GI50 (NCI-H460): 4.11 µM; GI50 (SNB-19): 7.08 µM; GI50 (TK-10): 18.6 µM; GI50 (KM12): 4.48 µM; GI50 (SK-MEL-5): 3.26 µM
COc1ccc(C2CC(c3cc(OC)c(OC)c(OC)c3)=NN2C(C)=O)cc1OCC(=O)Nc1nc2ccc(C(F)(F)F)cc2s1 (stereo not drawn) [Compound 10i, N1-(6-(trifluoromethyl)-1,3-benzothiazol-2-yl)-2-{5-[1-acetyl-3-(3,4,5-trimethoxyphenyl)-4,5-dihydro-1H-5-pyrazolyl]-2-methoxyphenoxy}acetamide] | 4.1 | 1.93 | > 100 | 3.08 | 3.13 | 2.17 | 2.39 | 1.84 | 2.22 | 2.71 | 3.36 | 3.55 | 6.12 | 3.36 | 0.045 to 18.8 | 1.82 | 5.75 | 2.75 | 2.9 | 2.92 | GI50 (HS 578T): 2.48 µM; GI50 (HOP-62): 2.2 µM; GI50 (SK-MEL-28): 3.56 µM; GI50 (SNB-19): 11 µM; GI50 (TK-10): 2.85 µM
